Test results reported in US4452778A, “Synergistic antibacterial compositions and method of treatment of infections caused by multiple antibiotic-resistant organisms” (Eli Lilly and Company, priority 1981, dated 1984).
Like-named read-outs stand apart in the source and are kept apart here.

Columns and labels:
Pseudomonas aeruginosa = test: Checkerboard broth dilution synergy study (mic); type: cell-based; conditions: Table II; for MIC: Pseudomonas aeruginosa, read-out: mic, drug alone
Serratia marcescens = test: Checkerboard broth dilution synergy study (mic); type: cell-based; conditions: Table II; for MIC: Serratia marcescens, read-out: mic, drug alone
E. cloacae = test: Checkerboard broth dilution synergy study (mic); type: cell-based; conditions: Table II; for MIC: Enterobacter cloacae, read-out: mic, drug alone
Klebsiella pneumoniae = test: Checkerboard broth dilution synergy study (mic); type: cell-based; conditions: Table II; for MIC: Klebsiella pneumoniae, read-out: mic, drug alone
Proteus rettgeri = test: Checkerboard broth dilution synergy study (mic); type: cell-based; conditions: Providencia rettgeri, Table II, strain 65; read-out: mic, drug alone
Proteus mirabilis = test: Checkerboard broth dilution synergy study (mic); type: cell-based; conditions: Proteus mirabilis; Table II, strain Allen; read-out: mic, drug alone
Proteus vulgaris = test: Checkerboard broth dilution synergy study (mic); type: cell-based; conditions: Proteus vulgaris, Table II, read-out: mic, drug alone
E. coli = test: Checkerboard broth dilution synergy study (mic); type: cell-based; conditions: Table II; for MIC: Escherichia coli, read-out: mic, drug alone
[1] = cited from earlier work; for mean serum concentration: end of injection

Structure (SMILES): CCN1CCN(C(=O)N[C@@H](C(=O)N[C@@H]2C(=O)N3[C@@H]2SC(C)(C)[C@@H]3C(=O)O)c2ccccc2)C(=O)C1=O [piperacillin, sodium 6-(D(-)-α-(4-ethyl-2,3-dioxo-1-piperazinylcarbonylamino)-α-phenylacetamido]penicillinate]
- MIC (Pseudomonas aeruginosa; strain 84): 64 µg/mL
- MIC (Pseudomonas aeruginosa; strain 366): > 128 µg/mL
- MIC (Pseudomonas aeruginosa; strain 424): > 128 µg/mL
- MIC (Pseudomonas aeruginosa; strain 447): > 128 µg/mL
- MIC (Pseudomonas aeruginosa; strain 1484): 64 µg/mL
- MIC (Pseudomonas aeruginosa; strain Davis): > 64 µg/mL
- mic of each drug in combination I + P (Pseudomonas aeruginosa; strain 84): 4 µg/mL
- mic of each drug in combination I + P (Pseudomonas aeruginosa; strain 366): 16 µg/mL
- mic of each drug in combination I + P (Pseudomonas aeruginosa; strain 424): 0.5 µg/mL
- mic of each drug in combination I + P (Pseudomonas aeruginosa; strain 447): 0.5 µg/mL
- mic of each drug in combination I + P (Pseudomonas aeruginosa; strain 1484): 8 µg/mL
- mic of each drug in combination I + P (Pseudomonas aeruginosa; strain Davis): 16 µg/mL
- MIC (Serratia marcescens; strain 100): > 64 µg/mL
- MIC (Serratia marcescens; strain 302-2): > 64 µg/mL
- MIC (Serratia marcescens; strain 796): > 64 µg/mL
- MIC (Serratia marcescens; strain 14142): > 64 µg/mL
- MIC (Serratia marcescens; strain Townsend): > 64 µg/mL
- mic of each drug in combination I + P (Serratia marcescens; strain 100): 32 µg/mL
- mic of each drug in combination I + P (Serratia marcescens; strain 302-2): 8 µg/mL
- mic of each drug in combination I + P (Serratia marcescens; strain 796): 4 µg/mL
- mic of each drug in combination I + P (Serratia marcescens; strain 14142): 8 µg/mL
- mic of each drug in combination I + P (Serratia marcescens; strain Townsend): 64 µg/mL
- MIC (E. cloacae; strain 1246): > 64 µg/mL
- MIC (E. cloacae; strain 1253): > 64 µg/mL
- MIC (E. cloacae; strain 1415): > 64 µg/mL
- MIC (E. cloacae; strain B293): > 64 µg/mL
- mic of each drug in combination I + P (E. cloacae; strain 1253): 32 µg/mL
- mic of each drug in combination I + P (E. cloacae; strain B293): 16 µg/mL
- MIC (Klebsiella pneumoniae; strain 130): > 64 µg/mL
- MIC (Klebsiella pneumoniae; strain 214-1): > 64 µg/mL
- MIC (Klebsiella pneumoniae; strain 463): > 64 µg/mL
- MIC (Klebsiella pneumoniae; strain 512): > 64 µg/mL
- MIC (Klebsiella pneumoniae; strain 933): > 64 µg/mL
- MIC (Klebsiella pneumoniae; strain 1204-2): > 64 µg/mL
- mic of each drug in combination I + P (Klebsiella pneumoniae; strain 214-1): 8 µg/mL
- mic of each drug in combination I + P (Klebsiella pneumoniae; strain 463): 16 µg/mL
- mic of each drug in combination I + P (Klebsiella pneumoniae; strain 512): 32 µg/mL
- mic of each drug in combination I + P (Klebsiella pneumoniae; strain 1204-2): 2 µg/mL
- MIC (Proteus rettgeri): 64 µg/mL
- MIC (Proteus mirabilis): > 64 µg/mL
- MIC (Proteus vulgaris; strain 363): > 64 µg/mL
- MIC (Proteus vulgaris; strain Shide): > 64 µg/mL
- MIC (E. coli; strain 46-2): > 64 µg/mL
- MIC (E. coli; strain 77-3): > 64 µg/mL
- MIC (E. coli; strain 136-3): > 64 µg/mL
- MIC (E. coli; strain 1260): > 64 µg/mL
- MIC (E. coli; strain 1262): > 64 µg/mL
- MIC (E. coli; strain Briley): > 64 µg/mL
- MIC (E. coli; strain Dill): 32 µg/mL
- mic of each drug in combination I + P (E. coli; strain 46-2): 2 µg/mL
- mic of each drug in combination I + P (E. coli; strain 1253): 4 µg/mL
- mic of each drug in combination I + P (E. coli; strain 1262): 64 µg/mL
- mic of each drug in combination I + P (E. coli; strain 1415): 2 µg/mL
- mic of each drug in combination I + P (E. coli; strain Briley): 32 µg/mL
- mean peak serum concentration ([1]; single intramuscular dose 0.5 g): 4.9 µg/mL
- mean peak serum concentration ([1]; single intramuscular dose 1.0 g): 13.3 µg/mL
- mean peak serum concentration ([1]; single intramuscular dose 2.0 g): 30.2 µg/mL
- mean serum concentration ([1]; single intravenous bolus 1.0 g): 70.7 µg/mL
- mean serum concentration ([1]; single intravenous bolus 2.0 g): 199.5 µg/mL
- mean serum concentration ([1]; single intravenous bolus 4.0 g): 330.7 µg/mL
- mean serum concentration ([1]; single intravenous bolus 6.0 g): 451.8 µg/mL
